In KR20220113942A, “제조성 및 용출성이 우수한 소형 정제” (스미토모 파마 가부시키가이샤, priority 2019, dated 2021):

Test: Test Example 2: evaluation of tabletability (capping on tableting)
Assay type: physicochemical
Settings: conclusion in words from Table 22

Compound: C[C@@H]1N=C(N)NC(N(C)C)=N1 [이메글리민, (6R)-N2,N2,6-트리메틸-3,6-디히드로-1,3,5-트리아진-2,4-디아민, 염산염]
- compression moldability: 압축 성형성이 나빠서
- tendency to tableting failure (capping) as drug content ratio in the tablet rises (high drug content ratio in the tablet): 타정 장해(캐핑)가 발생하기 쉬움
